Results: patent US20030100494A1, “Nerve protective drugs” (priority 1999, published 2003)
Non-standard residues stand in square brackets, D forms with d. Residues, ends and D or L forms follow the SMILES beside them. dTrp(2-Me) = Cc1[nH]c2ccccc2c1C[C@@H](N)C(=O)O; d2Nal = N[C@H](Cc1ccc2ccccc2c1)C(=O)O

How the values were obtained:
[1] = test system: Rat hippocampal nerve cells; experiment: ionomycin-induced death of cultured rat hippocampal nerve cells (WST-8 cell survival rate); conditions: for inhibition of cell death induced by ionomycin at a single concentration: each 0.1 μM, 3 μM ionomycin, FIGS. 6a and 6b
Method: The solution was used after dilution to predetermined concentrations with distilled water for injection (JP, Otsuka Pharmaceutical) containing 1 mg/mL of bovine serum albumin (SIGMA). Rat type ghrelin (Peptide Institute) was used after dilution to predetermined concentrations with water for injection containing 1 mg/mL of bovine serum albumin. Other reagents used were L-15 culture medium, D-MEM/F-12 culture medium, MEM culture medium, Neuro Basal culture medium, B-27 supplement, horse serum, newborn calf serum, L-glutamine (all of the foregoing products of GIBCO), L-cysteine, ionomycin, calf serum albumin, DNase I (all of the foregoing products of SIGMA), glucose, viable cell count determination reagent SF (all of the foregoing products of Nacalai tesque), and papain (Worthington Biochemical).
Animals used were fetal rats on the 20th fetal day gestated in Wistar/ST definitively pregnant rats (15-18 days pregnant, Japan SLC).
Rat hippocampal nerve cells were isolated in accordance with the method of Hatanaka et al. (Hatanaka, H. and Tsukui, H., Dev. Brain. Res. 30(1986)47). Brains were removed from Wistar/ST fetal rats (20 fetal days), and soaked in cold L-15 medium. The meninges were ablated under microscope, and the hippocampus was cut out. Hippocampal tissue was transferred into a test tube containing the L-15 medium, and the test tube was centrifuged for 3 minutes at 700 rpm. Then, the supernatant was removed, and phosphate buffer (pH 7.2) containing papain (0.5 mg/mL), bovine serum albumin (0.2 mg/mL), cysteine (0.2 mg/mL), glucose (5 mg/mL) and DNase I (0.01%) was added, followed by incubating the mixture for 15 minutes at 37° C. Then, horse serum was added, and the mixture was centrifuged for 3 minutes at 700 rpm. Then, the supernatant was removed, D-MEM/F-12 medium was added, and the cells were dispersed by pipetting. After centrifugation for 5 minutes at 700 rpm, the dispersed cells were redispersed in D-MEM/F-12 medium containing 5% newborn calf serum and 5% horse serum, and inoculated in a polyethyleneimine-coated 48-well culture plate (Nunc) at a rate of 4×10^5 cells/cm^2. The cells were cultured in a culture incubator (37° C., 5% CO2-95% air). On the 2nd day of culturing, the culture medium was replaced by Neuro Basal medium containing 2 mM of glutamine and B-27 supplement. Then, the medium was replaced at intervals of 4 days.
Cells on the 14th day of culturing were used in experiments. The culture medium was replaced by a B-27-free MEM medium, and the cells were incubated for 30 minutes. Then, a solvent (dimethyl sulfoxide) and a test compound were added, and the system was incubated for 30 minutes (procedure 1). Then, 3 μM of ionomycin was added, and the mixture was incubated for 30 minutes (procedure 2). The culture medium was washed, and replaced by Neuro Basal medium containing B-27 supplement, and the system was cultured for 18 hours (procedure 3). In examining the effect of post-treatment, the solvent and the test compound were not added in procedure 1, but added 30 minutes after replacement of the medium in procedure 3.

[2] = test system: rat ischemia-reperfusion cerebral infarction models; experiment: rat ischemia-reperfusion cerebral infarction model after transient obstruction of middle cerebral artery; assay type: in vivo
Method: Preventive and therapeutic effect of KP-102 in rat ischemia-reperfusion cerebral infarction models after transient obstruction of middle cerebral artery
The effect of the growth hormone secretion promoting substance was evaluated using ischemia-reperfusion cerebral infarction models, which are general pathological models of diseases involving degeneration or death of nerve cells, such as cerebral ischemia, cerebral infarction and cerebral edema. KP-102 was used as a typical example of the growth hormone secretion promoting substance.
KP-102 (synthetic product) was dissolved in physiological saline (JP) to a concentration of 24 μg/ml. Other reagents used were halothane (JP: Takeda Chem. Ind.), triphenyltetrazolium chloride (TTC, Nacalai tesque), Dulbecco PBS(−) (Nissui Pharmaceutical) and low viscosity dental impression silicone (XANTOPRENRL, imported by Hereus Dental Material, Osaka). A 1% TTC solution was prepared by dissolving TTC in an isotonic phosphate buffer solution (pH 7.4) which had been prepared by dissolving PBS(−) powder in distilled water.
Male Wistar rats (Charles River Japan, INC.), 9 weeks old and weighing about 300 g, were used as experimental animals.
Obstruction of the middle cerebral artery was performed in accordance with the method of Koizumi et al. (Jpn. J. Stroke (1986)8:1-8) and the method of Longa et al. (Stroke (1989)20:84-91). Anesthesia was performed with 2% halothane in a 30% oxygen/70% nitrous oxide mixed gas. A cannula for administration of a test material had been inserted into the right femoral vein, and the other end of the cannula delivered to the poll. After several hours or more, the animals were anesthetized again, and set in a supine position. A median incision of the neck was made, and connective tissues around the right common carotid artery, the internal carotid artery, and the external carotid artery were ablated. The distal end of the external carotid artery and the external carotid artery were ligated with a suture, and blood flow in the common carotid artery was blocked with a clip. The following procedure was performed, with measures for prevention of bleeding being taken: A small incision was made in the external carotid artery, and a plug comprising a 5 mm front end of a surgical 4-0 nylon thread coated with dental silicone was inserted toward the internal carotid artery as far as a site where a slight resistance was felt. As a result, the middle cerebral artery (hereinafter referred to as MCA) was occluded, at its point of origin, with the plug. The plug was fixed in the internal carotid artery with a clip. The incision wound was closed and anesthesia was stopped to awake the animals. Anesthesia was performed again 70 minutes after MCA occlusion, the plug was detached 75 minutes later to restore blood flow in MCA, and the end of the external carotid artery proximal to the incision site was closed for prevention of bleeding. Blood flow in the common carotid artery was restored 10 minutes later. The incision site of the skin was closed with a Michel needle, and the animals were recovered from anesthesia.
The cannula for administration of the test material was connected to a free moving device (TCS2-21, Tsumura). […]

[3] = influence on blood pressure and heart rate; conditions: in vivo
[4] = KP-102 total 0.16 mg/kg i.v., 72 hours after reperfusion, FIG. 1

For `CCC(CC)C(=O)N1CCC[C@@H]1C(=O)N[C@@H](Cc1ccc2ccccc2c1)C(=O)NCC(O)CN` (stereo partly drawn) [S-39100, N-(3-amino-2-hydroxypropyl)-2(S)-[1-(2-ethylbutyryl)pyrrolidine-2(R)-carbonylamino]-3-naphthalen-2-yl-propionamide], which “inhibition of cell death induced by ionomycin at a single concentration” value (shortened to “inhibition … at a single concentration”) [1] is on record?
The value was “clear action of inhibiting cell death”.

With `CC(C)(C)C(=O)N1CCC[C@H]1C(=O)N[C@H](Cc1ccc2ccccc2c1)C(=O)NCC(O)CN` (stereo partly drawn) [S-38855, N-(3-amino-2-hydroxypropyl)-2(R)-[1-(2,2-dimethylpropionyl)pyrrolidine-2(S)-carbonylamino]-3-naphthalen-2-yl-propionamide] as the compound, how does the “inhibition … at a single concentration” value [1] read?
Its value is “clear action of inhibiting cell death”.

With `C[C@H](NC(=O)[C@@H](Cc1ccc2ccccc2c1)NC(=O)[C@@H](C)N)C(=O)N[C@@H](Cc1c[nH]c2ccccc12)C(=O)N[C@H](Cc1ccccc1)C(=O)N[C@@H](CCCCN)C(N)=O` [KP-102, D-alanyl-3-(2-naphthalenyl)-D-alanyl-L-alanyl-L-tryptophyl-D-phenylalanyl-L-lysineamide] (H-[dA][d2Nal]AW[dF]K-NH2) as the compound, how does the “cerebral infarct size, cortex” value [2, 4] read?
The value was “effect of shrinking the infarct was observed”.

What about the “cerebral infarct size, medulla” value [2, 4] of the same compound?
The value was “effect of shrinking the infarct was observed”.

What about the “percent cerebral infarction volume for the entire cerebrum” value ([2]; vs control group, KP-102 total 0.16 mg/kg i.v. infusion beginning 30 minutes after MCA occlusion, 72 hours after reperfusion, FIG. 1, P<0.05 Mann-Whitney) of the same compound?
The value was “significantly smaller”.

What about the percent edema ([2]; vs control group, KP-102 total 0.16 mg/kg i.v., 72 hours after reperfusion, FIG. 2, no significant differences, P=0.087) of the same compound?
The percent edema was “tendency toward suppression”.

What about the “score of neurologic symptoms” value ([2]; vs control group, KP-102 total 0.16 mg/kg i.v., after reperfusion, normal score 33 points, FIG. 3, P<0.05) of the same compound?
Its value is “significantly higher”.

What about the “influence on blood pressure” value [3] of the same compound?
The value was “does not influence”.

What about the “influence on heart rate” value [3] of the same compound?
Its value is “does not influence”.

What about the “inhibition of cell death, compound applied after ionomycin treatment” value ([1]; applied 30 minutes after replacement of the ionomycin-treated culture medium, FIG. 4b) of the same compound?
The value was “cell death inhibiting action was also confirmed”.

And the “inhibition of cell death induced by 3 μM of ionomycin, compound applied 30 minutes before ionomycin” value ([1]; concentrations of 0.01 to 1 μM, dose-dependent, FIG. 4a)?
Its value is “inhibited cell death”.

With `Cc1[nH]c2ccccc2c1C[C@@H](NC(=O)[C@@H](N)Cc1c[nH]cn1)C(=O)N[C@@H](C)C(=O)N[C@@H](Cc1c[nH]c2ccccc12)C(=O)N[C@H](Cc1ccccc1)C(=O)N[C@@H](CCCCN)C(N)=O` [hexarelin, L-histidyl-2-methyl-D-tryptophyl-L-alanyl-L-tryptophyl-D-phenylalanyl-L-lysineamide, reference compound] (H-H[dTrp(2-Me)]AW[dF]K-NH2) as the compound, how does the “inhibition … at a single concentration” value [1] read?
The value was “clear action of inhibiting cell death”.

Which “inhibition … at a single concentration” value [1] does the source give for `NCC(O)CNC(=O)[C@@H](Cc1ccc2ccccc2c1)NC(=O)CCN1C(=O)c2ccccc2CCc2ccccc21` (stereo partly drawn) [S-37555, N-[1(R)-(3-amino-2-hydroxy-propylcarbamoyl)-2-yl-ethyl]-3-(6-oxo-11,12-dihydro-6H-dibenzo[b,f]azocinn-5-yl)-propionamide] here?
Its value is “clear action of inhibiting cell death”.
